Reference: patent publication US9834575B2, “Cancer therapy” (TriAct Therapeutics, Inc., priority 2013, dated 2017)
Values after ≈ are worked out from the molar mass of the structure shown. Read-outs that look alike come from different tables or passages of the source.

Legend:
[1] = Metabolite profiling of NDGA in plasma after oral administration in male CD-1 mice (LC-HRAMS, semi-quantitative); type: in vivo
Procedure: The dosing solution was prepared at a nominal concentration of 20 mg/mL; detailed description is shown in Appendix I. The actual concentration, established using HPLC-MS, was 84.9% of nominal (+/−8.9%) and was within the acceptable range according to the study protocol. Animal dosing and blood collection were performed according to the study protocol; details are shown in Appendix II. […] Plasma samples were prepared from blood according to the study protocol. Aliquots of the stabilized (with ascorbic acid) plasma samples were treated with MeCN (1:3 ratio) containing a mixture of internal standards (metoprolol, propranolol, and warfarin, each at 500 ng/mL) for protein precipitation. After centrifugation, clear supernatants were analyzed directly using LC-High Resolution Accurate Mass Spectrometry (HRAMS) as described below.
The samples were separated using HPLC, and two stationary phases were evaluated: ACE pentaflurophenyl C18 (Phenomenex) and dC18 (Waters). […]
Following the pre-scan, the FT analyzer is set to perform a slow survey scan at high resolution (HRMS). […] The decision event selects the two most intense ions detected in the pre-scan which are on the parent mass list. […]
1) Subtraction of the chromatogram of a control sample (solvent control in blank matrix) from the analyzed sample, leading to creation of a “SUB” file (Appendix II). […]

[2] = In vitro stability of NDGA in freshly drawn whole blood of CD-1 mice; type: in vitro ADME; settings: CD-1 mouse whole blood
Procedure: The aliquots were treated with MeCN (1:3 ratio) containing a mixture of internal standards (metoprolol, propranolol, and warfarin, each at 500 ng/mL) for protein precipitation. After centrifugation, supernatants were analyzed directly using LC-HRAMS as described below.

[3] = Exposure (plasma concentration by LC-MS/MS) of NDGA after oral administration in male CD-1 mice at 100 mg/kg; type: in vivo; settings: for concentration at 0.167 h / concentration at 0.5 h / concentration at 2 h / concentration at 4 h: male, CD-1, mouse, plasma, po, 100 mg/kg, PO 100 mg/kg; for concentration at 0.167 h: time point 0.167 hr; for concentration at 0.5 h: time point 0.50 hr; for concentration at 2 h: time point 2.0 hr; for concentration at 4 h: time point 4.0 hr
Procedure: Test compound was dosed at 100 mg/kg from 0.5% MC and 0.5% NaCMC in DI water in separate groups. Analytical stock solutions (1 mg/mL of the free drug) were prepared in DMSO. Standards were made from independently prepared stock solutions of the test compound. Standards and QCs were prepared in male CD-1 mouse plasma containing K2EDTA as an anticoagulant with 10% of 0.1M ascorbic acid in water. Standards were prepared at concentrations of 1000, 500, 100, 50, 10, 5, 1, and 0.5 ng/mL by serial dilution. Standards were treated identically to the study samples. Plasma samples were manually extracted using acetonitrile precipitation. All samples were thawed on ice, and kept on ice during preparation. […] [table] • Flow Rate: 300 μL/min • Injection Volume: 10 μL • Run Time: 4.5 min • Temperature: ambient • Autosampler Wash: #1: 1:1:1 (v:v:v) water:acetonitrile:isopropanol with 0.2% formic acid • #2: 50:50 (v:v) methanol:water [table] […] All data are expressed as ng/mL of the free drug. Samples that were below the limit of quantitation were not used in the calculation of averages. Plasma concentrations versus time data are plotted in FIGS. 24 and 25.

[4] = Solubility of NDGA in intestinal fluids; type: physicochemical; settings: fassgf or other biorelevant
H1975, A427, A549 cells = assay: Cell survival/proliferation (CyQuant) of NSCLC cell lines in 10% serum from untreated mice spiked with drug; type: cell-based, human; settings: 72 h
Procedure: The CyQuant™ assay (Invitrogen) may be used to differentiate antioxidant activity from anti-proliferative activity. Briefly, the assay is based on dye fluorescence enhancement upon binding to cellular nucleic acids. Cells are lysed by addition of a buffer containing the CyQUANT™-GR dye; there are no washing steps, growth medium changes or long incubations. The resulting fluorescence is proportional to the number of cells in the sample and is measured directly using the TD-700 fluorometer equipped with a fluorescein filter kit. The CyQUANT™ assay can detect much lower cell numbers than Neutral Red or methylene blue assays. […] Thus, cells can be frozen prior to assaying; time course assays are facile and data obtained from samples taken at widely different time intervals can be directly compared. […] Cell number differences were measured using the CyQuant® assay (Invitrogen). H1975, A427, A549 cells were seeded at 1×10^4 cells/well in a 96 well plate and incubated overnight at 37° C. […] The plates were incubated for 72 h at 37° C. and the relative cell number per well was determined using the CyQuant® reagent. Fluorescence was measured using a Molecular Devices plate reader.

A427 cells = assay: Cell number (CyQuant) after culture in 10% serum from mice orally administered 300 mg/Kg drug, A427; type: cell-based, human; settings: A427, 72 h
Procedure: (§1) The plates were incubated for 72 h at 37° C. and the relative cell number per well was determined using the CyQuant® reagent. Fluorescence was measured using a Molecular Devices plate reader. […] Serum from five animals was pooled, mixed with culture medium at a concentration of 10% and cells incubated for 72 hours. Cell number was then determined using the CyQuant® assay. […] Differences in cell number for cells cultured in 10% serum was compared by t-test. P values are: A427, p=0.009; A549, p=0.133; and […], p=0.744.

A549 cells = assay: Cell number (CyQuant) after culture in 10% serum from mice orally administered 300 mg/Kg drug, A549; type: cell-based, human; settings: A549, 72 h
Procedure: as §1

[5] = 0.5% MC in DI water, group average
[6] = 0.5% MC in DI water, group average, read-out: Average plasma concentration
[7] = 0.5% NaCMC in DI water, group average
[8] = 0.5% NaCMC in DI water, group average, read-out: Average plasma concentration

AUC ([1]; mouse plasma, 300 mg/kg PO NDGA, trapezoidal approximation, 5-240 min): 28.5 peak area ratio* min | Stability of NDGA in whole blood ([2]; time 0 minutes): 100 | Stability of NDGA in whole blood ([2]; time 15 minutes): 7.2 | Putative metabolites detected upon incubation in whole blood in vitro ([2]; up to 60 minutes): No putative metabolites were detected | Stability in whole blood sample (in words) ([2]; possibly impacted by poor recovery): appears to be unstable | concentration at 0.167 h [3, 5]: 43.4 ng/mL | concentration at 0.5 h [3, 6]: 44.2 ng/mL | concentration at 2 h [3, 5]: 3.08 ng/mL | concentration at 4 h [3, 6]: 3.19 ng/mL | concentration at 0.167 h [3, 7]: 70.8 ng/mL | concentration at 0.5 h [3, 8]: 49.6 ng/mL | concentration at 0.5 h ([3]; 0.5% NaCMC in DI water, individual mice #183-187, read-out: Individual plasma concentration Conc.): 40.9 ng/mL | concentration at 2 h [3, 7]: 1.83 ng/mL | concentration at 4 h [3, 8]: 2.75 ng/mL | concentration at 4 h ([3]; 0.5% NaCMC in DI water, individual mice #183-186, read-out: Individual plasma concentration Conc.): 3.24 ng/mL | solubility [4]: ~8 µg/mL (≈ 26.5 µM)
Compound: CC(Cc1ccc(O)c(O)c1)C(C)Cc1ccc(O)c(O)c1 (stereo not shown) [NDGA, nordihydroguaiaretic acid]
Adverse effects in the dosed animals ([1]; male CD-1 mice, 300 mg/kg PO, 0.5% NaCMC in water): No adverse effects were observed | Observations and adverse reactions ([3]; 100 mg/kg PO, one mouse (#187) died ~5 min after 30 min sample, possibly stress): No other adverse effects were observed | Concentration above which reduced cell proliferation was observed (H1975, A427, A549 cells; 10% mouse serum spiked with drug): > 10 µM | Cell number reduced (H1975, A427, A549 cells; maximum concentration tested, 10% mouse serum, all cell lines averaged): 33% | Number of cells after culture in 10% serum from treated mice (in words) (A427 cells): decrease was statistically significant | Number of cells after culture in 10% serum from treated mice (in words) (A549 cells): not significant at the 0.05 level
